Laboratory results: patent EP1101492A1, “NOVEL REMEDIES FOR ALLERGIC DISEASES” (FUJI YAKUHIN KOGYO KABUSHIKI KAISHA, priority 1998, dated 2000)

Columns and labels:
Body weight gain in mice = conditions: test compounds 60 mg/kg s.c., prednisolone 10 mg/kg i.p., once a day for 6 days (Days 0-5), average ± standard deviation; for Body Weight Gain, Observation Day 5: non-administered 0.50± 0.23; for Body Weight Gain, Observation Day 7: non-administered 0.80± 0.48; for Body Weight Gain, Observation Day 10: non-administered 1.07± 0.58
Procedure: Accordingly, for assessing the side-effect each of the following test compounds an action on body weight gains was examined.
Next the mice were measured for their body weight. Each body weight gain was calculated on Days 5, 7 and 10 post-administration based on the body weight just prior to administration.

[1] = test system: mouse experimental atopic dermatitis models; experiment: Auricle edema in experimental atopic dermatitis model (anti-DNP IgE sensitization, DNFB elicitation); type: in vivo, Balb/c mice; conditions: test compounds 60 mg/kg s.c., prednisolone 10 mg/kg i.p.; for % Inhibition IPR: auricle edema 1 hour post-elicitation; for % Inhibition IPR / % Inhibition LPR: once a day, 24 & 2 hours prior to DNFB-elicitation, vs untreated group; for % Inhibition LPR: auricle edema Day 1 post-elicitation; for % Inhibition vLPR: auricle edema Day 7 post-elicitation
Procedure: Intravenous injection of an anti-2,4-dinitrophenol (DNP) antibody (anti-DNP Ab, monoclonal IgE Ab; its antibody titer was 1 : 512 to 1 : 1024 by a rat heterologous passive cutaneous anaphylaxis reaction using a Wister rat) into a tail vein of female Balb/c mice (7-week old, body weight: 17 to 20 g, purchased from JAPAN SLC, Inc.) at a dose of […] per animal raised passive sensitization. Twenty four hours post-sensitization, 0.1% 2,4-dinitrofluorobenzene (DNFB; Nacalai Tesque, Inc.) in ethanol was painted onto both sides of a pair of mouse auricles at a dose of 10µL per each side for elicitation.
Fresh unsensitized mice were painted with 0.1% DNFB in ethanol onto their ear in the same manner as aforementioned and served as a control group. Not only immediately prior to elicitation but also 1 hour, 5 hours, daily between Days 1 and 14, and on Day 16 post-elicitation, ear thickness was measured using a dial thickness gauge (Peacock Co.). Each degree of auricle edemas was calculated: Auricular Edema (µm)=(Ear Thickness Post-Elicitation, µm) - (Ear Thickness immediately prior to Elicitation, µm) [formula]
Balb/c mice were passively sensitized with anti-DNP IgE Ab in the same manner as in Example 1. Twenty four hours later, 0.1% DNFB in ethanol was painted onto both sides of a pair of mouse auricles at a dose of 10 µL per each side for elicitation.
Immediately prior to elicitation, 1 hour and on Day 1 post-elicitation, auricle thickness was measured in the same manner as in Example 1. Each therapeutic efficacy is recorded as a percent inhibition wherein the "auricle edema (untreated group)" is used as a control. Auricle Edema Inhibition (%) = [ 1 -(Auricle Edema (Treated Group))/(Auricle Edema (Untreated Group))] × 100 (%) [formula]
Immediately prior to elicitation, and on Day 7 post-elicitation, auricle thickness was similarly measured. Each therapeutic efficacy is recorded as a percent inhibition wherein the auricle edema in the untreated group is used as a control.
Immediately prior to elicitation, and on Day 7 post-elicitation, auricle thickness was similarly measured. Each therapeutic efficacy is recorded as a percent inhibition wherein the auricle edema (untreated group) is used as a control.
Immediately prior to elicitation, at 1 and 4 hours and on Days 1, 3 and 7 post-elicitation, auricle thickness was similarly measured. From each auricle edema (µm) based on the auricle thickness immediately prior to elicitation, especially a prophylactically therapeutic efficacy of the test compound was evaluated.
Immediately prior to elicitation, at 0.5, 1 and 4 hours and on Days 1, 3 and 7 post-elicitation, auricle thickness was similarly measured. Each amount of auricle edemas was calculated (average± standard deviation).

[2] = test system: guinea pig experimental bronchial asthma models; experiment: Experimental bronchial asthma model (ovalbumin inhalation): airway resistance and asthmatic death;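 as to all read-outs here: female Std:Hartley guinea pigs sensitized by inhaling nebulized ovalbumin once daily for 8 consecutive days, 8 to 11 animals per group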; conditions: test compounds 15 mg/kg s.c. (Compound No. 114: 30 mg/kg), prednisolone 10 mg/kg orally; for % Survival: asthmatic death within several minutes after elicitation, water for injection 54.5, 0.5% methyl cellulose 66.7; for % Amelioration in Airway Resistance, 1 Hour after Elicitation / % Amelioration in Airway Resistance, 6 Hours after Elicitation / % Amelioration in Airway Resistance, Immediately after Elicitation: 24 and 2 hours prior to elicitation, vs solvent control
[3] = daily from 3 to 6 days after DNFB-elicitation
[4] = daily from 1 day prior to through 5 days after DNFB-elicitation

| Structure (SMILES) | Body Weight Gain, Observation Day 5 (Body weight gain in mice) | Body Weight Gain, Observation Day 7 (Body weight gain in mice) | Body Weight Gain, Observation Day 10 (Body weight gain in mice) | % Inhibition IPR [1] [%] | % Inhibition LPR [1] [%] | % Inhibition vLPR [1, 3] [%] | % Inhibition vLPR [1, 4] [%] | % Survival [2] [%] | % Amelioration in Airway Resistance, 1 Hour after Elicitation [2] [%] | % Amelioration in Airway Resistance, 6 Hours after Elicitation [2] [%] | % Amelioration in Airway Resistance, Immediately after Elicitation [2] [%] |
| --- | --- | --- | --- | --- | --- | --- | --- | --- | --- | --- | --- |
| CNC(=O)C(CCCCNC(C)=N)NC(=O)C(CC(C)C)C(C)C(=O)NO (racemic) [Compound No. 22, N^a-[4-(Hydroxyamino)-2(R)-isobutyl-3(RS)-methylsuccinyl]-N^e-acetimidoyl-L-lysine N-methylamide · 1 acetate] | 0.97± 0.31 | 0.80± 0.39 | 1.20± 0.53 | 52.7 | 33.1 | 49.5 | – | – | – | – | – |
| CNC(=O)C(CCCN)NC(=O)C(CC(C)C)C(CCCc1ccc(NC(=N)N)cc1)C(=O)NO (racemic) [Compound No. 46, N^a-[4-(Hydroxyamino)-2(R)-isobutyl-3(RS)-[3-(4'-guanidinophenyl)propyl]succinyl]-L-ornithine-N-methylamide · 2 acetate] | 1.08± 0.22 | 1.57± 0.33 | 1.33± 0.32 | – | 46.7 | – | 27.5 | – | – | – | – |
| CC(=N)NCc1ccc(CC(NC(=O)C(CC(C)C)C(CC(C)C)C(=O)NO)C(=O)NCCO)cc1 (racemic) [Compound No. 91, N^a-[4-(Hydroxyamino)-2(R),3(RS)-diisobutylsuccinyl]-4'-acetimidoyliminomethyl-L-phenylalanine N-(2-hydroxyethyl)amide · 2 acetate] | 1.28± 0.37 | 1.55± 0.48 | 1.30± 0.54 | – | 43.0 | – | – | – | – | – | – |
| CNC(=O)C(CCCNC(=N)N)NC(=O)C(CC(C)C)C(Cc1ccc(CN2C(=O)c3ccccc3C2=O)cc1)C(=O)NO (single isomer, unassigned) [Compound No. 51, N^a-[4-(Hydroxyamino)-2(R)-isobutyl-3(R or S)-(p-phthalimidomethylbenzyl)succinyl]-L-arginine N-methylamide · 1 acetate] | – | – | – | – | – | – | – | 70.0 | 59.1 | 56.3 | 30.1 |
| CNC(=O)[C@H](CCCCN)NC(=O)[C@H](CC(C)C)C(CCCc1ccc(C(=O)OC)cc1)C(=O)NO (single isomer, unassigned) [Compound No. 65, N^a-[4-(Hydroxyamino)-2(R)-isobutyl-3(R or S)-[3-(p-methoxycarbonylphenyl)propyl]succinyl]-L-lysine N-methylamide · 1 acetate] | – | – | – | – | – | – | – | 87.5 | 22.3 | 63.6 | 29.9 |
| CC(=N)N=Cc1ccc(C[C@H](NC(=O)[C@H](CC(C)C)C(CC(C)C)C(=O)NO)C(=O)NCCN(C)C)cc1.CC(=O)O.CC(=O)O (single isomer, unassigned) [Compound No. 90, N^a-[4-(Hydroxyamino)-2(R),3(R or S)-diisobutylsuccinyl]-4'-acetimidoyliminomethyl-L-phenylalanine N-(2-N',N'-dimethylaminoethyl)amide · 2 acetate] | – | – | – | – | – | – | 20.6 | – | – | – | – |
| CC(=O)O.CNC(=O)[C@H](Cc1ccc(CNC(C)=N)cc1)NC(=O)[C@H](CC(C)C)[C@H](O)C(=O)NO [Compound No. 43, N^a-[4-(Hydroxyamino)-2(R)-isobutyl-3(S)-hydroxysuccinyl]-4'-acetimidoyliminomethyl-L-phenylalanine N-methylamide · 1 acetate] | – | – | – | 38.2 | 39.2 | 43.6 | – | – | – | – | – |
| CC(=O)O.CNC(=O)[C@H](Cc1ccc(NC(=N)N)cc1)NC(=O)[C@@H](CC(=O)NO)CC(C)C [Compound No. 121, N-[4-(N-Hydroxyamino)-2(R)-isobutylsuccinyl]-L-4'-guanidophenylalanine-N-methylamide 1 acetate] | – | – | – | – | – | – | – | 88.9 | 56.4 | 102.2 | – |
| CC(=O)O.CNC(=O)[C@H](Cc1ccc(CNC(C)=N)cc1)NC(=O)[C@H](CC(C)C)[C@H](CCCc1ccccc1)C(=O)NO [Compound No. 126, N-[4-(N-Hydroxyamino)-2(R)-isobutyl-3(S)-(3-phenyltrimethylene)succinyl]-L-4'-acetimidoyliminomethylenephenyl alanine-N-methylamide · 1 acetate] | – | – | – | 38.2 | 39.2 | 44.7 | – | – | – | – | – |
| CC(=O)O.CC(C)C[C@H](C(=O)NO)[C@@H](CC(C)C)C(=O)N[C@@H](Cc1ccc(CN)cc1)C(=O)NCCC(=O)O [Compound No. 127, N-[4-(N-Hydroxyamino)-2(R),3(S)-diisobutylsuccinyl]-L-4'-aminomethylphenylalaninyl-β-alanine · 1 acetate] | – | – | – | 47.8 | 41.1 | 20.6 | 46.7 | 70.0 | 20.8 | 55.2 | 21.9 |
| CNC(=O)[C@H](Cc1ccc(CN)cc1)NC(=O)[C@H](CC(C)C)[C@@H](CCCc1ccccc1)C(=O)NO.Cl [Compound No. 128, N-[4-(N-Hydroxyamino)-2(R)-isobutyl-3(R)-(3-phenylpropyl)succinyl)-L-4'-aminomethylphenylalanine-N-methylamide · 1 hydrochloride] | – | – | – | – | – | – | – | 72.7 | 53.2 | 49.4 | – |
